pIC50: −log10 of the molar value.
How the values were obtained:
[1] = test system: 2.2.15 cells; assay: neutral red dye uptake cytotoxicity; assay type: cell-based; conditions: 9 days treatment, read-out: 50% Cell Death CC50
Experimental: Further, the antiviral effect of any compound must be measured against its toxicity. Cytotoxicity is measured by the neutral red uptake method using the same cells used for antiviral activity.
2b. Compounds were prepared for toxicity treatment as follows: For each compound, a total of 4 concentrations were examined. This required 9 sets of 4 sterile, 1.1 ml minitubes (36 tubes per compound). Into the first tube of each set, sufficient compound was aliquoted to make up 465 μl of the highest test concentration. The other tubes were left empty. The tubes were covered with the rack lids, and stored at −20° C. or at an appropriate temperature. Tubes for the last day of treatment for toxicity testing contain the same amount of compound as used the previous days (not 3xas for the antiviral assays).
3b. The cytotoxicity of test compounds was analyzed in a 3.3-fold dilution series as follows. […] (155 μl×3) of RP2 were added to the first tube (containing the aliquot of compound) and 310 μL (155 μl×2) RP2 to each of the 3 remaining tubes. 150 μl of test compound-containing medium were serially transferred from the first tube to the other 3 tubes.
5. A single plate was used for the toxicity treatments for each test compound (up to 7 compounds per plates since the top row were reserved for untreated cells on every toxicity plate). To initiate the treatments, the culture medium was removed, and 100 μl of each dilution of every compound were added to each of 3 wells using a configuration similar to that shown above for the antiviral treatments. The untreated cells received 100 μl RP2 per well. Treatment was repeated daily for 9 days.
The antiviral effect of any compound was evaluated relative to its toxicity. Cells were seeded and treated following the guidelines above, after which a neutral red dye uptake assay was performed to assess toxicity as described below. Other assays of cytotoxicity (e.g., MTT) can be substituted for the procedure described below. Note that this procedure assesses toxicity under culture and treatment conditions which are identical to those used for the antiviral analyses, thereby permitting a determination as to whether the reduction in virus production due to a specific antiviral effect or due to a cytotoxic effect on the host cell. Since the cultures, by necessity, are at confluence, the cytotoxic effects of the test compounds will probably be reduced relative to the cytotoxic effects that would be expected for actively dividing cells.
1. Cultures were treated with test compounds on the designated toxicity plates as described above.
2. The culture medium was carefully removed 24 hours following the 9th day of treatment. The monolayer was fully removed in the top left three wells (row A, col. 1-3). These wells were used as “blanks” for the plate reader.
3. 100 μl DPBS (containing 0.01% neutral red dye) were added to each well, including the empty wells, and Incubated in the tissue culture incubator for 30 minutes.
4. The dye was removed carefully and gently, using a multichannel pipetman since the monolayers can become fragile after incubation with neutral red dye. 200 μl DPBS were added to all the wells taking care not to displace the monolayers. The DPBS was removed and 100 μl 50% EtOH/1% glacial acetic acid (in H2O) were added to each well. The plates were mixed for 15 minutes on an orbital platform shaker (120-150 RPM) to allow for full extraction of the dye from the cells.
5. Optical absorbance at 510 nm was read in an ELISA type plate reader, using the 3 empty wells to set the background. An average absorbance value was calculated for the 9 untreated cultures on a plate, and the absorbance of dye for the treated cultures on the same plate was expressed as a percentage of that value. This procedure was repeated for each individual plate. […]

[2] = test system: HIV derived RRE RNA; assay: heterologous hybridization inhibition assay with RRE RNA; assay type: binding; conditions: radiolabeled RRE RNA, rRNA competitor

## Cc1ccc(Nc2nc(NN=Cc3cccc(I)c3)nc(Nc3ccccc3)n2)cc1 [Compound 30]
[1]
  CC50: 230 µM
[2]
  RRE + rRNA IC50 (μM): inactive

## Oc1ccc(I)cc1C=NNc1nc(NCc2ccccc2)nc(Nc2ccccc2)n1 [Compound 33]
[1]
  CC50: 50 µM
[2]
  RRE + rRNA IC50 (μM): inactive

## Oc1c(Br)cc(Cl)cc1/C=N/Nc1nc(Nc2cccc(C(F)(F)F)c2)nc(N2CCOCC2)n1 [Compound 34]
[1]
  CC50: 41 µM
[2]
  RRE + rRNA IC50 (μM): inactive

## CCCCN(CCCC)c1nc(NN=Cc2cccc(Cl)c2)nc(Nc2ccc([N+](=O)[O-])cc2)n1 [Compound 35]
[1]
  CC50: 3.9 µM
[2]
  RRE + rRNA IC50 (μM): inactive

## Cc1ccc(Nc2nc(NN=Cc3ccc(I)cc3)nc(Nc3ccccc3)n2)c(C)c1 [Compound 113]
[1]
  CC50: > 300 µM
[2]
  pIC50: 3.52

## O=[N+]([O-])c1ccc(Nc2nc(NN=Cc3ccc(Br)cc3)nc(N3CCCCCC3)n2)cc1 [Compound 117]
[1]
  CC50: > 300 µM
[2]
  RRE + rRNA IC50 (μM): inactive

## FC(F)(F)c1cccc(Nc2nc(NN=Cc3ccc(Cl)cc3)nc(N3CCOCC3)n2)c1 [Compound 120]
[1]
  CC50: 45 µM
[2]
  pIC50: 2.96

## C(=Cc1ccccc1)C=NNc1nc(Nc2ccccc2)nc(Nc2ccccc2)n1 [Compound 125]
[1]
  CC50: 265 µM
[2]
  pIC50: 3.00

## COc1ccc(Nc2nc(NN=Cc3ccc(O)cc3O)nc(Nc3ccccc3)n2)cc1 [Compound 158]
[1]
  CC50: 112 µM
[2]
  RRE + rRNA IC50 (μM): inactive

## Cc1ccc(Nc2nc(NN=Cc3cc(I)ccc3O)nc(Nc3ccccc3)n2)c(C)c1 [Compound 159]
[1]
  CC50: 101 µM
[2]
  RRE + rRNA IC50 (μM): inactive

## Oc1ccc(Cl)cc1C=NNc1nc(Nc2ccc3ccccc3c2)nc(N2CCOCC2)n1 [Compound 160]
[1]
  CC50: > 300 µM
[2]
  pIC50: 3.38

## COc1c(C=NNc2nc(NCc3ccccc3)nc(Nc3ccccc3)n2)cccc1[N+](=O)[O-] [Compound 162]
[1]
  CC50: 436 µM
[2]
  RRE + rRNA IC50 (μM): inactive

## Brc1cccc(C=NNc2nc(Nc3ccccc3)nc(N3CCOCC3)n2)c1 [Compound 163]
[1]
  CC50: 150 µM
[2]
  RRE + rRNA IC50 (μM): inactive

## COc1ccc(Nc2nc(NN=Cc3ccc(O)cc3O)nc(N3CCOCC3)n2)cc1 [Compound 164]
[1]
  CC50: 201 µM
[2]
  RRE + rRNA IC50 (μM): inactive

## COc1ccc(C=NNc2nc(NCc3ccccc3)nc(Nc3ccccc3)n2)cc1 [Compound 165]
[1]
  CC50: > 300 µM
[2]
  RRE + rRNA IC50 (μM): inactive

## Ic1cccc(C=NNc2nc(Nc3ccc4ccccc4c3)nc(N3CCOCC3)n2)c1 [Compound 166]
[1]
  CC50: 252 µM
[2]
  RRE + rRNA IC50 (μM): inactive

## Oc1ccc2ccccc2c1C=NNc1nc(Nc2cccc3ccccc23)nc(N2CCOCC2)n1 [Compound 167]
[1]
  CC50: 161 µM
[2]
  RRE + rRNA IC50 (μM): inactive

## COc1c(C=NNc2nc(Nc3ccccc3)nc(Nc3ccccc3)n2)ccc(Br)c1O [Compound 168]
[1]
  CC50: > 300 µM
[2]
  RRE + rRNA IC50 (μM): inactive

## Oc1ccccc1C=NNc1nc(Nc2ccccc2)nc(N2CCCCC2)n1 [Compound 169]
[1]
  CC50: > 300 µM
[2]
  RRE + rRNA IC50 (μM): inactive

## COc1cccc(C=NNc2nc(Nc3ccccc3)nc(N3CCCC3)n2)c1O [Compound 170]
[1]
  CC50: 499 µM
[2]
  pIC50: 3.13

## CCN(CC)c1nc(NN=Cc2c(O)ccc3ccccc23)nc(Nc2ccccc2)n1 [Compound 171]
[1]
  CC50: 174 µM
[2]
  RRE + rRNA IC50 (μM): inactive

## Cc1cccc(C(=O)Oc2ccc(C=NNc3nc(N4CCCCC4)nc(N4CCCCC4)n3)cc2)c1 [Compound 181]
[1]
  CC50: > 300 µM
[2]
  RRE + rRNA IC50 (μM): inactive

## CC(=NNc1nc(NCc2ccccc2)nc(Nc2ccccc2)n1)c1ccc([N+](=O)[O-])cc1 [Compound 182]
[1]
  CC50: > 300 µM
[2]
  RRE + rRNA IC50 (μM): inactive

## CC(=NNc1nc(Nc2ccccc2)nc(N2CCCC2)n1)c1ccc([N+](=O)[O-])cc1 [Compound 183]
[1]
  CC50: > 300 µM
[2]
  RRE + rRNA IC50 (μM): inactive

## Cc1ccc(Nc2nc(NCc3ccccc3)nc(NN=Cc3ccc(F)cc3F)n2)cc1C [Compound 191]
[1]
  CC50: 836 µM
[2]
  RRE + rRNA IC50 (μM): inactive

## CN(C)c1nc(NCc2ccccc2)nc(NCc2cccs2)n1 [Compound 192]
[1]
  CC50: 739 µM
[2]
  RRE + rRNA IC50 (μM): inactive

## COc1c(C=NNc2nc(N3CCCC3)nc(N3CCOCC3)n2)cccc1[N+](=O)[O-] [Compound 193]
[1]
  CC50: 666 µM
[2]
  RRE + rRNA IC50 (μM): inactive

## Cc1ccc(Nc2nc(NCc3ccccc3)nc(Nc3ccc([N+](=O)[O-])cc3)n2)cc1C [Compound 194]
[1]
  CC50: 626 µM
[2]
  RRE + rRNA IC50 (μM): inactive

## COc1ccccc1C=NNc1nc(NCc2ccccc2)nc(Nc2ccccc2)n1 [Compound 195]
[1]
  CC50: 400 µM
[2]
  RRE + rRNA IC50 (μM): inactive

## Cc1ccc(Nc2nc(NN=Cc3ccc(Cl)cc3)nc(N3CCOCC3)n2)cc1Cl [Compound 196]
[1]
  CC50: 381 µM
[2]
  RRE + rRNA IC50 (μM): inactive

## COc1ccc(Nc2nc(NN=Cc3cc(Br)cc(Br)c3O)nc(N3CCOCC3)n2)cc1 [Compound 200]
[1]
  CC50: 309 µM
[2]
  RRE + rRNA IC50 (μM): inactive

## Fc1cccc(C=NNc2nc(Nc3ccccc3)nc(N3CCCC3)n2)c1 [Compound 201]
[1]
  CC50: > 300 µM
[2]
  RRE + rRNA IC50 (μM): inactive

## CCN(CC)c1nc(Nc2cccc(Br)c2)nc(Nc2cc(C)ccc2C)n1 [Compound 202]
[1]
  CC50: > 300 µM
[2]
  RRE + rRNA IC50 (μM): inactive

## O=C(CSc1nc(SCC(=O)Nc2ccccc2C(F)(F)F)nc(SCC(=O)Nc2ccccc2C(F)(F)F)n1)Nc1ccccc1C(F)(F)F [Compound 212]
[1]
  CC50: > 300 µM
[2]
  RRE + rRNA IC50 (μM): inactive

## C(=Cc1ccccc1)C=NNc1nc(Nc2ccccc2)nc(N2CCCC2)n1 [Compound 213]
[1]
  CC50: > 300 µM
[2]
  pIC50: 3.29

## CCN(CC)c1nc(NN=Cc2ccc(Cl)c([N+](=O)[O-])c2)nc(Nc2cc(C)ccc2C)n1 [Compound 214]
[1]
  CC50: > 300 µM
[2]
  RRE + rRNA IC50 (μM): inactive

## Clc1ccc(C=NNc2nc(Nc3ccccc3)nc(N3CCCC3)n2)cc1 [Compound 218]
[1]
  CC50: > 300 µM
[2]
  pIC50: 4.24

## Cc1ccc(Nc2nc(NCc3ccccc3)nc(NN=Cc3cc(Br)cc(Br)c3O)n2)cc1C [Compound 219]
[1]
  CC50: > 300 µM
[2]
  RRE + rRNA IC50 (μM): inactive

## O=C(NNc1nc(Nc2ccccc2)nc(Nc2cccc(C(F)(F)F)c2)n1)c1cccc(Br)c1 [Compound 220]
[1]
  CC50: > 300 µM
[2]
  pIC50: 3.04

## CN(C)c1nc(NCc2ccccc2)nc(NN=Cc2ccc(Cl)cc2Cl)n1 [Compound 224]
[1]
  CC50: > 300 µM
[2]
  RRE + rRNA IC50 (μM): inactive

## COc1ccc(Nc2nc(NCc3cccc([N+](=O)[O-])c3)nc(NCc3cc(F)ccc3F)n2)cc1OC [Compound 225]
[1]
  CC50: 281 µM
[2]
  RRE + rRNA IC50 (μM): inactive

## Cc1ccc(Nc2nc(NCc3ccccc3)nc(NN=Cc3cc(Cl)ccc3O)n2)cc1C [Compound 226]
[1]
  CC50: 280 µM
[2]
  pIC50: 3.37

## CC(=NNc1nc(Nc2ccccc2)nc(N2CCCC2)n1)c1ccc(F)cc1 [Compound 227]
[1]
  CC50: 247 µM
[2]
  RRE + rRNA IC50 (μM): inactive

## Cc1ccc(Nc2nc(NCc3ccccc3)nc(NN=Cc3ccccc3F)n2)cc1C [Compound 228]
[1]
  CC50: 243 µM
[2]
  RRE + rRNA IC50 (μM): inactive

## Cc1ccc(Nc2nc(NN=Cc3cccc([N+](=O)[O-])c3)nc(Nc3ccccc3)n2)c(C)c1 [Compound 229]
[1]
  CC50: 237 µM
[2]
  RRE + rRNA IC50 (μM): inactive

## Brc1ccc(Nc2nc(NCc3ccccc3)nc(Nc3ccc(Br)cc3)n2)cc1 [Compound 230]
[1]
  CC50: 231 µM
[2]
  RRE + rRNA IC50 (μM): inactive

## O=[N+]([O-])c1ccc(Nc2nc(NCc3ccccc3)nc(N3CCOCC3)n2)cc1 [Compound 231]
[1]
  CC50: 218 µM
[2]
  RRE + rRNA IC50 (μM): inactive

## Oc1ccc(Br)cc1C=NNc1nc(Nc2cccc(Br)c2)nc(N2CCOCC2)n1 [Compound 232]
[1]
  CC50: 190 µM
[2]
  RRE + rRNA IC50 (μM): inactive

## CNc1nc(NN=Cc2cc(Cl)ccc2O)nc(Nc2ccccc2)n1 [Compound 245]
[1]
  CC50: 137 µM
[2]
  RRE + rRNA IC50 (μM): inactive

Source: US6335339B1, “Triazine antiviral compounds” (Scriptgen Pharmaceuticals, Inc., priority 1998, dated 2002)
